# Article PMC8329121 (Journal of Neuroimmune Pharmacology, 2021)
# Where “and” joins values, the source holds several entries; their conditions need not be identical. Equal values may be shown once. Read-outs that look alike come from different tables or passages of the source.
# Tests used:
# hDAT H547A = target: T1, hDAT H547A (Homo sapiens, UniProt Q01959, H547A); assay: Kinetic analysis of [3H]DA uptake with or without 2-BP in PC12 cells; assay type: cell-based; details: 15 µM 2-BP
# T1 construct: expressed in transfected cells; host or cells: PC12 cells, transient, pcDNA3.1+
# Method: (§1) This concentration was chosen based on previous studies as well as pilot experiments conducted to determine the optimal concentration (data not shown). […] Intact PC12 cells in 24-well plates transiently expressing WT hDAT or H547A were washed twice with 1× KRH buffer. […] Nonspecific uptake was determined in the presence of 10 µM nomifensine and desipramine. […] specific uptake, nonspecific uptake was subtracted from total uptake. To determine the effects of 2-BP exposure at the 2 h time point, the cells were incubated similarly as above, but allowed to incubate at room temperature for 2 h. After each incubation, cells were washed twice with ice-cold 1× KRH buffer to terminate the […], lysed with 500 µl 1 % SDS, and allowed to shake at room temperature for an hour. Lysates were collected into scintillation vials and radioactivity was measured via liquid scintillation as above. Radioactivity was measured the next day using a liquid scintillation counter (model Tri-Carb 2900TR; PerkinElmer Life and Analytical Sciences, Waltham, MA).
# WT hDAT [1] = target: T2, WT hDAT (Homo sapiens, UniProt Q01959); assay: as above; assay type: cell-based; parameters: expressed in transfected cells; host or cells: PC12 cells, transient, pcDNA3.1+; details: 15 µM 2-BP
# Method: as §1
# hDAT D206L [2] = target: T3, hDAT D206L (Homo sapiens, UniProt Q01959, D206L); assay: [3H]WIN35,428 binding in intact PC12 cells
# T3 construct: expressed in transfected cells; host or cells: PC12 cells, transient, pcDNA3.1+
# Method: (§2) For the competitive inhibition experiment, assays were performed in duplicate in a final volume of 500 µl. […] Assays were terminated by removal of reaction reagents in well and then washed three times with ice-cold assay buffer. Cells were lysed with 1 % SDS for an hour. Radioactivity was determined as described above.
# hDAT Y88F/D206L/H547A [3] = target: T4, hDAT Y88F/D206L/H547A (Homo sapiens, UniProt Q01959, D206L/H547A/Y88F); assay: [3H]WIN35,428 binding in intact PC12 cells
# T4 construct: expressed in transfected cells; host or cells: PC12 cells, transient, pcDNA3.1+
# T4 sequence (Q01959 1-620 Y88F/D206L/H547A): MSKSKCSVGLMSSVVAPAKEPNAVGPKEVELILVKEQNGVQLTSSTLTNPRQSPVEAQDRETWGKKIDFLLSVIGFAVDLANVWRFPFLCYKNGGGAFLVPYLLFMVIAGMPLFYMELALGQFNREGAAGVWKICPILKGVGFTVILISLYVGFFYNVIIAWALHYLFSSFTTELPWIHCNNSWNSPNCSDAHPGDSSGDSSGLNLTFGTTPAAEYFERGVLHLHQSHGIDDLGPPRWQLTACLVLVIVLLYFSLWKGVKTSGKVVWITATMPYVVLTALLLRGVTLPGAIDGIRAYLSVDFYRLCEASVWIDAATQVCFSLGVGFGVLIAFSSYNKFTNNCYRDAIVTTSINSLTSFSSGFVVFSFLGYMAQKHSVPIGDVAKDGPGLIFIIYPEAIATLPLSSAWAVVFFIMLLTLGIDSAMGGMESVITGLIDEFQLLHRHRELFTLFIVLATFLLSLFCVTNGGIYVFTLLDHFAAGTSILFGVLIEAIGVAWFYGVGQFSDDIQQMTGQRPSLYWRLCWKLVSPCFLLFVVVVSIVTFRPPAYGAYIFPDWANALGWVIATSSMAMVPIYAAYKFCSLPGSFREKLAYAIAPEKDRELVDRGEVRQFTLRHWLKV
# Method: as §2
# hDAT D206L/H547A [4] = target: T5, hDAT D206L/H547A (Homo sapiens, UniProt Q01959, D206L/H547A); assay: [3H]WIN35,428 binding in intact PC12 cells
# T5 construct: expressed in transfected cells; host or cells: PC12 cells, transient, pcDNA3.1+
# Method: as §2
# hDAT D381L [5] = target: T6, hDAT D381L (Homo sapiens, UniProt Q01959, D381L); assay: [3H]WIN35,428 binding in intact PC12 cells
# T6 construct: expressed in transfected cells; host or cells: PC12 cells, transient, pcDNA3.1+
# Method: as §2
# WT hDAT [6] = target: T2, WT hDAT; assay type: binding; parameters: expressed in transfected cells; host or cells: PC12 cells, transient, pcDNA3.1+; details: for increase in specific [3H]WIN35,428 binding: Fig. 6d; for Bmax of [3H]WIN35,428 binding: PC12 cells
# Method: as §2
# hDAT D206L [7] = target: T3, hDAT D206L; assay: [3H]DA uptake kinetics and inhibition in intact PC12 cells; assay type: cell-based
# hDAT D206L/H547A [8] = target: T5, hDAT D206L/H547A; assay: as above; assay type: cell-based
# hDAT Y88F/D206L/H547A [9] = target: T4, hDAT Y88F/D206L/H547A; assay: as above; assay type: cell-based
# hDAT D381L [10] = target: T6, hDAT D381L; assay: as above; assay type: cell-based
# WT hDAT [11] = target: T2, WT hDAT; details: for Vmax of [3H]DA uptake: PC12 cells
# [12] = ZnCl2 1, 10, 100 µM, concentration-dependent
# T1 sequence (Q01959 whole entry H547A): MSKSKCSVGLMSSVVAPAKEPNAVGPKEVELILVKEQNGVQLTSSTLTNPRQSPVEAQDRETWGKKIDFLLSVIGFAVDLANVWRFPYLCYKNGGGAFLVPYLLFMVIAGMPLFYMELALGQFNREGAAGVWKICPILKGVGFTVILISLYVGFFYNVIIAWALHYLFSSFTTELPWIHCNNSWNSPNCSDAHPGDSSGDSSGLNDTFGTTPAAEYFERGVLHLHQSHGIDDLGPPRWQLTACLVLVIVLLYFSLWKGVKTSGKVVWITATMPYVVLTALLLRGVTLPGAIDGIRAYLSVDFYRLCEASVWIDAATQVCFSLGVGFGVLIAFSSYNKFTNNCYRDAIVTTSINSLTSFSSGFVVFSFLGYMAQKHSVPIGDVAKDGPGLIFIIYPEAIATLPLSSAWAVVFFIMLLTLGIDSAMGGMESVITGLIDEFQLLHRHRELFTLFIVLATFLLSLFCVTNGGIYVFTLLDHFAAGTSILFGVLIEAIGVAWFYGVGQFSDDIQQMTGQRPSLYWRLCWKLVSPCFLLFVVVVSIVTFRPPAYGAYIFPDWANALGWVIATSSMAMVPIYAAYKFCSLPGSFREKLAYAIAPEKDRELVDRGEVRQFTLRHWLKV
# T2 sequence (Q01959 whole entry): as the sequence (Q01959 whole entry H547A) above, with A547H counted along it
# T5 sequence (Q01959 whole entry D206L/H547A): as the sequence (Q01959 whole entry H547A) above, with D206L counted along it
# T3 sequence (Q01959 whole entry D206L): as the sequence (Q01959 whole entry H547A) above, with D206L, A547H counted along it
# T6 sequence (Q01959 whole entry D381L): as the sequence (Q01959 whole entry H547A) above, with D381L, A547H counted along it
compound,measurement,setting,value
"CCCCCCCCCCCCCCC(Br)C(=O)O (stereo not drawn) [2-BP, 2-bromopalmitate]",Vmax of [3H]DA uptake in the presence of 2-BP,hDAT H547A; 0 h,6.41 ± 1.45 pmol/min/10^5 cells
same,Vmax of [3H]DA uptake in the presence of 2-BP,hDAT H547A; 2 h,5.56 ± 1.93 pmol/min/10^5 cells and 5.66 ± 1.93 pmol/min/10^5 cells
same,Vmax of [3H]DA uptake in the presence of 2-BP,WT hDAT [1]; 0 h,5.36 ± 0.74 pmol/min/10^5 cells
same,Vmax of [3H]DA uptake in the presence of 2-BP,WT hDAT [1]; 2 h,5.55 ± 0.92 pmol/min/10^5 cells
"[Cl-].[Cl-].[Zn+2] [Zn^2+, ZnCl2]","zinc effect on specific [3H]WIN35,428 binding",hDAT D206L [2]; [12],increase
same,"zinc-induced increase in [3H]WIN35,428 binding versus WT hDAT","hDAT Y88F/D206L/H547A [3]; 10 and 100 µM Zn2+, Fig. 6d",attenuated
same,"zinc-induced increase in [3H]WIN35,428 binding versus WT hDAT","hDAT D206L/H547A [4]; 10 and 100 µM Zn2+, Fig. 6d",attenuated
same,"zinc effect on specific [3H]WIN35,428 binding",hDAT D381L [5]; [12],increase
same,"increase in specific [3H]WIN35,428 binding",WT hDAT [6]; 10 µM Zn2+,39%
same,"increase in specific [3H]WIN35,428 binding",WT hDAT [6]; 100 µM Zn2+,52%
same,"zinc effect on specific [3H]WIN35,428 binding",WT hDAT [6]; [12],increase
same,zinc effect on [3H]DA uptake,hDAT D206L [7]; [12],decrease
same,zinc effect on [3H]DA uptake,hDAT D206L/H547A [8]; [12],decrease
same,zinc effect on [3H]DA uptake,hDAT Y88F/D206L/H547A [9]; [12],decrease
same,zinc effect on [3H]DA uptake,hDAT D381L [10]; [12],decrease
"NCCc1ccc(O)c(O)c1 [[^3H]DA, 3,4-ethyl-2[N-^3H]dihydroxyphenylethylamine]",Km,"WT hDAT [11]; read-out: Km of [3H]DA uptake, PC12 cells, Table 2 series",0.45 ± 0.21 µM
same,Km,hDAT D206L [7]; PC12 cells,1.66 ± 0.78 µM
same,Km,hDAT D381L [10]; PC12 cells,1.04 ± 0.34 µM
"[3H]C(CN)c1ccc(O)c(O)c1 (stereo not drawn) [[^3H]DA, 3,4-ethyl-2[N-^3H]dihydroxyphenylethylamine]",Vmax of [3H]DA uptake,WT hDAT [11]; Table 1 series (single mutants),12.43 ± 2.50 pmol/min/10^5 cells
same,Vmax of [3H]DA uptake,WT hDAT [11]; Table 2 series (double and triple mutants),26.62 ± 3.87 pmol/min/10^5 cells
same,Vmax of [3H]DA uptake,hDAT D206L [7]; PC12 cells,13.09 ± 3.55 pmol/min/10^5 cells
same,Vmax of [3H]DA uptake,hDAT D206L/H547A [8]; PC12 cells,40.82 ± 3.60 pmol/min/10^5 cells
same,Vmax of [3H]DA uptake,hDAT Y88F/D206L/H547A [9]; PC12 cells,10.78 ± 0.98 pmol/min/10^5 cells
same,Vmax of [3H]DA uptake,hDAT D381L [10]; PC12 cells,4.54 ± 0.95 pmol/min/10^5 cells
"COC(=O)[C@H]1[C@@H](c2ccc(F)cc2)C[C@@H]2CC[C@H]1N2C [[^3H]WIN35,428]","Bmax of [3H]WIN35,428 binding",hDAT D206L [2]; PC12 cells,2.87 ± 0.96 pmol/10^5 cells
same,"Bmax of [3H]WIN35,428 binding",hDAT Y88F/D206L/H547A [3]; PC12 cells,3.50 ± 0.47 poml/10^5 cells
same,"Bmax of [3H]WIN35,428 binding",hDAT D206L/H547A [4]; PC12 cells,4.95 ± 1.28 poml/10^5 cells
same,"Bmax of [3H]WIN35,428 binding",hDAT D381L [5]; PC12 cells,2.00 ± 0.63 pmol/10^5 cells
same,"Bmax of [3H]WIN35,428 binding",WT hDAT [6]; Table 3 series,3.32 ± 0.58 pmol/10^5 cells
same,"Bmax of [3H]WIN35,428 binding",WT hDAT [6]; Table 4 series,2.44 ± 0.40 poml/10^5 cells
